From patent US9522911B2, “Crystalline forms of tricyclic compound acid salt or hydrate thereof, and method for making thereof” (Jeil Pharmaceutical Co., Ltd., priority 2012, dated 2016) come the findings set out here.

Series [1] can be described thus: Stability: moisture content with respect to time in thermo-hygrostat (Karl Fisher). Format: physicochemical. The settings on record: 25° C. and 60% RH, opened Petri dish. As for the experimental part:
To compare the stability of 10-ethoxy-8-(morpholinomethyl)-1,2,3,4-tetrahydrobenzo[h][1,6]naphthyridine-5(6H)-on dichloride dihydrate prepared in Example 1 and 10-ethoxy-8-(morpholinomethyl)-1,2,3,4-tetrahydrobenzo[h][1,6]naphthyridine-5(6H)-on dichloride anhydride prepared in Comparative Example 1, the following experiment was performed.
3.0 g of each of the compounds was put in a Petri dish, and the Petri dish was left in a thermo-hygrostat maintaining 25° C. and 60% RH with an opened state. The moisture content with respect to time was measured using a Karl Fisher apparatus and recorded. By measuring the change of the moisture content with respect to time under the above-described conditions, the stability of the dihydrate and that of the anhydride were compared. The results are illustrated in the following Table 1 and FIG. 1.

A short description of series [2]: Stability of crystalline vs amorphous compound by change of XRD diffraction pattern (with moisture content). Format: physicochemical. The conditions noted are these: for Change of XRD diffraction pattern with respect to time (in words): X-ray diffraction analysis. As for the experimental part: For comparing the stability of the crystalline compound of Example 1 according to the present invention and the amorphous compound of Comparative Example 2, the following experiment was performed.
The stability of each of the crystalline compound of Example 1 according to the present invention and the amorphous compound of Comparative Example 2 was measured by measuring the change of a diffraction pattern through X-ray diffraction analysis (XRD).
For the amorphous compound of Comparative Example 2, accurate and specific XRD pattern of the amorphous type was not shown, however amorphous 10-ethoxy-8-(morpholinomethyl)-1,2,3,4-tetrahydrobenzo[h][1,6]naphthyridine-5(6H)-on dichloride obtained after freeze drying absorbs surrounding moisture during performing the XRD, thereby increasing the crystallinity and showing XRD peaks.
Meanwhile, the moisture content of the compound of Comparative Example 2 was 0.4% immediately after drying, and was increased to 5.2% after measuring XRD.

Regarding `CCOc1cc(CN2CCOCC2)cc2[nH]c(=O)c3c(c12)NCCC3` [Comparative Example 1, 10-ethoxy-8-(morpholinomethyl)-1,2,3,4-tetrahydrobenzo[h][1,6]naphthyridine-5(6H)-on dichloride anhydride], in series [1], the “Change of the moisture content with respect to time (in words)” value is on record as “increased within 30 minutes from the initial state”. Moreover, the Moisture content is reported as 9.70% in series [1] (30 min); 10.18% in series [1] (1 h); 9.79% in series [1] (2 h); 9.72% in series [1] (1 day); 9.86% in series [1] (2 days); 0.40% in series [1] (initial state).

Turning to `CCOc1cc(CN2CCOCC2)cc2[nH]c(=O)c3c(c12)NCCC3.Cl.Cl` [Comparative Example 2, 10-ethoxy-8-(morpholinomethyl)-1,2,3,4-tetrahydrobenzo[h][1,6]naphthyridine-5(6H)-on dichloride], the “Change of XRD diffraction pattern with respect to time (in words)” value in series [2] was “crystallinity thereof is increased”. Further, the Moisture content is listed as 5.2% in series [2] (after measuring XRD) and 0.4% in series [2] (immediately after drying).

On to `CCOc1cc(CN2CCOCC2)cc2[nH]c(=O)c3c(c12)NCCC3` [Example 1, 10-ethoxy-8-(morpholinomethyl)-1,2,3,4-tetrahydrobenzo[h][1,6]naphthyridine-5(6H)-on dichloride dihydrate], for which the “Change of XRD diffraction pattern with respect to time (in words)” value in series [2] is recorded as “constant data without change of the XRD diffraction pattern”. Also, the “Change of the moisture content with respect to time (in words)” value in series [1] (dihydrate) is recorded as “constant”. For the same molecule, the Moisture content is recorded as 8.75% in series [1] (30 min, dihydrate); 8.80% in series [1] (1 h, dihydrate); 8.79% in series [1] (2 h, dihydrate); 8.77% in series [1] (1 day, dihydrate); 8.81% in series [1] (2 days, dihydrate); 8.77% in series [1] (initial state, dihydrate).
